Measured values reported in publication PMC10363979, “Effects of bergapten on the pharmacokinetics of macitentan in rats both in vitro and in vivo” (Frontiers in Pharmacology, 2023).
Read-outs that look alike come from different tables or passages of the source. Values belong to the compound of their own block, whether it stands above or below them.

Assays:
[1] = Pharmacokinetic interaction between BP and macitentan in rats (plasma macitentan and ACT-132577); type: in vivo, Sprague-Dawley rats; conditions: for Cmax / Tmax / AUC(0-inf) / AUC(0-t) / CL/F / MRT last / MRT inf / half-life: Sprague-Dawley, rat, plasma, po, 20 mg/kg, macitentan in plasma, macitentan 20 mg/kg oral; for CL/F: read-out: CLz/F (converted); for MRT last: read-out: MRT(0-t); for MRT inf: read-out: MRT(0-∞); for half-life: read-out: t1/2z (converted)
Method: (§1) The concentrations of macitentan and ACT-132577 were determined by UPLC-MS/MS, which consisted of an Acquity I-class UPLC system (Waters Corp., Milford, MA, United States) and a Xevo TQD triple quadrupole mass spectrometer (Waters Corporation, Milford, MA, United States) equipped with an electrospray ionization source. Chromatographic separation was performed on an Acquity UPLC BEH C18 column (2.1 × 100 mm, 1.7 μm) at 40°C. The mobile phase was composed of acetonitrile (solvent A) and water containing 0.1% formic acid (solvent B, pH 2.74). The gradient condition of mobile phases was set with a flow rate of 0.4 mL/min as follows: 0–0.5 min, 20% A; 0.5–1 min, 70% A; 1–2 min, 95% A; 2–2.6 min, 20% A. Positive ion and selective multiple reaction monitoring (SRM) modes were used for quantitative analysis with the precursor to product ion transitions of m/z 588.9→203.4 for macitentan, 546.9→200.6 for ACT-132577, and 285.0→193.0 for diazepam. The cone voltage and collision voltage were 28V, 14 V for macitentan, 26V, 28 V for ACT-132577, and 35V, 30 V for diazepam. The mass spectrometry parameters of the source temperature, desolvation temperature, cone gas flow rate, and desolvation gas flow rate were 150°C, 500°C, 50 L/h, and 1000 L/h, respectively.
Twelve Sprague-Dawley rats were randomly assigned to two groups. BP (10 mg/kg) was continuously administered daily to rats in the experimental group for 7 days, whereas the 0.5% CMC-Na was orally administered once a day to rats in the control group. Rats were fasted overnight before dosing, with free access to water. Macitentan (20 mg/kg) was intragastrically administered 30 min after the last dose of BP or 0.5% CMC-Na on the seventh day. Blood samples (300 μL) were collected from the tail vein into 1.5 mL Eppendorf tubes containing 10 μL heparin sodium at the time points of 0.083, 0.25, 0.5, 1, 2, 3, 4, 6, 8, 12, 24, and 36 h after macitentan administration. Plasma was obtained after centrifugation of the blood samples at 4,000 rpm for 10 min and stored at −80°C for further analysis. Before UPLC-MS/MS analysis, 100 μL plasma was mixed with 200 μL acetonitrile and 30 μL diazepam (500 ng/mL) and then fractionated at 13,000 rpm for 5 min at 4°C. A 150 μL sample of the supernatant was collected for analysis.
All assays were performed in triplicate, and the results are expressed as mean ± standard deviation. The pharmacokinetic parameters of elimination half-life (t1/2), area under the plasma concentration-time curve (AUC), maximal plasma concentration (Cmax), time to peak plasma concentration, plasma clearance (CLz/F), apparent volume of distribution, and mean residence time were calculated using a non-compartment model with DAS software (version 3.2.8, Lishui People’s Hospital, China). Data analysis, statistical comparisons, and graphs were generated using GraphPad Prism software (version 7.0; GraphPad Software Inc., San Diego, CA, United States). Student’s t-test of variance following the least significant difference method was used for comparisons between the control and experimental groups. Statistical significance was set at p < 0.05.

[2] = Stability of macitentan and ACT-132577 in rat plasma (UPLC-MS/MS method validation); type: in vitro ADME
Method: as §1
Method validation, including accuracy, precision, recovery, matrix effects and stability, was conducted in accordance with the guidelines of the FDA and the European Medicines Agency.

ET receptor = tested on: ET receptor; design: method as in Iglarz et al, 2008; conditions: ref Iglarz et al, 2008, cited from earlier work; for Pharmacological activity of metabolite: Figure 1
[3] = cited from earlier work
[4] = Inhibition of macitentan metabolism (ACT-132577 formation) by bergapten and Michaelis-Menten kinetics in rat liver microsomes; type: in vitro ADME; conditions: rat, rat liver microsomes, pH 7.4; RLMs
Method: as §1
(§2) The effects of BP on macitetan metabolism in vitro were investigated using RLMs, HLMs, and rCYP3A4. And, the formation of ACT-132577 was considered as an indicator of inhibitory effect. The 200 μL incubation system contained NADPH (1 mM), potassium phosphate buffer (100mM, pH = 7.4), macitentan, BP, and RLMs (0.3 mg/mL), HLMs (0.2 mg/mL), or rCYP3A4 (0.13 mg/mL). Firstly, a series concentration of macitentan with 1, 2.5, 5, 10, 25, 50 and 100 μM were included in the reaction buffer to determine the Km and Vmax values. Then, a series concentration of BP following 0, 0.01, 0.1, 1, 5, 10, 50 and 100 μM were used for the determination of IC50 value of BP against macitentan. […] The system was pre-incubated at 37°C for 5 min, and 10 μL NADPH was added to initiate the reaction. After incubation for 30 min at 37°C, 200 μL ice-cold acetonitrile and 30 μL diazepam (500 ng/mL) were added to terminate the reaction. The samples were centrifuged at 13,000 rpm for 5 min, and the supernatant fraction (150 μL) was collected for UPLC-MS/MS analysis.

[5] = tested on: Rat liver microsomes (RLMs); assay: as above; type: in vitro ADME; conditions: RLMs
Method: as §1, §2

[6] = design: method as in Sidharta et al, 2015; conditions: estimated; ref Sidharta et al, 2015; cited from earlier work
[7] = tested on: macitentan metabolism (formation of ACT-132577); assay: Inhibition of macitentan metabolism (ACT-132577 formation) by bergapten and Michaelis-Menten kinetics in rat liver microsomes; type: in vitro ADME; conditions: rat, rat liver microsomes, pH 7.4, probe macitentan; RLMs 0.3 mg/mL, 30 min, 37°C; read-out: IC50 of BP on macitentan metabolism
Method: as §1, §2

[8] = target: human liver microsomes (HLMs) (Homo sapiens, UniProt P08684); assay: Inhibition of macitentan metabolism (ACT-132577 formation) by bergapten and Michaelis-Menten kinetics in human liver microsomes; type: in vitro ADME
Method: as §1
as §2, with “After incubation for 30 min at 37°C, 200 μL ice-cold acetonitrile and 30 μL diazepam (500 ng/mL) were added to terminate the reaction. The samples were centrifuged at 13,000 rpm for 5 min, and the supernatant fraction (150 μL) was collected for UPLC-MS/MS analysis.” left out

[9] = target: macitentan metabolism (formation of ACT-132577) (Homo sapiens, UniProt P08684); assay: as above; type: in vitro ADME; conditions: human, pH 7.4
Method: as §1
as §2, with “After incubation for 30 min at 37°C, 200 μL ice-cold acetonitrile and 30 μL diazepam (500 ng/mL) were added to terminate the reaction. The samples were centrifuged at 13,000 rpm for 5 min, and the supernatant fraction (150 μL) was collected for UPLC-MS/MS analysis.” left out

[10] = target: T1, recombinant human CYP3A4 (rCYP3A4) (Homo sapiens, UniProt P08684); assay: Inhibition of macitentan metabolism (ACT-132577 formation) by bergapten and Michaelis-Menten kinetics in recombinant human CYP3A4; type: in vitro ADME
T1 construct: made in house
Method: as §1
as §2, with “After incubation for 30 min at 37°C, 200 μL ice-cold acetonitrile and 30 μL diazepam (500 ng/mL) were added to terminate the reaction. The samples were centrifuged at 13,000 rpm for 5 min, and the supernatant fraction (150 μL) was collected for UPLC-MS/MS analysis.” left out

[11] = Plasma Cmax of bergapten in rat (literature); type: in vivo; conditions: 3 mg/kg bergapten, converted from ng/mL, ref Li et al, 2014
[12] = design: method as in Li et al, 2014; conditions: rat, 3 mg/kg bergapten; ref Li et al, 2014; cited from earlier work
[13] = single dose macitentan, ref Atsmon et al, 2013
[14] = control group (0.5% CMC-Na 7 days)
[15] = experimental group (BP 10 mg/kg daily 7 days)
[16] = with BP 10 mg/kg vs without, p < 0.05

T1 sequence (P08684 whole entry): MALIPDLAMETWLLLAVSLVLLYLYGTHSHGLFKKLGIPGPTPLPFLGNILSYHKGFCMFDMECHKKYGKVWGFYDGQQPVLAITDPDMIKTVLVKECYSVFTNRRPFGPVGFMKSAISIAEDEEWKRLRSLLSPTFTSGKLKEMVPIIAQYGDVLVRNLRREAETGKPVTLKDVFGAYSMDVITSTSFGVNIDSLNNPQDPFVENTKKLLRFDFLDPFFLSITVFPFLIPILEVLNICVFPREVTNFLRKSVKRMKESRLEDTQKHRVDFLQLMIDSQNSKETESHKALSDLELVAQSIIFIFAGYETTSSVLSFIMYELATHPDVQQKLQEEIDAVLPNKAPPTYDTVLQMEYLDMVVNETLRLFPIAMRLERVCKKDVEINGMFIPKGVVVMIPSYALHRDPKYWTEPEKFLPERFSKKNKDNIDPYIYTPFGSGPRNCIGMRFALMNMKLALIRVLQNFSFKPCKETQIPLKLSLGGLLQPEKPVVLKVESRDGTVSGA
Chain of human liver microsomes (HLMs) (P08684 2-503): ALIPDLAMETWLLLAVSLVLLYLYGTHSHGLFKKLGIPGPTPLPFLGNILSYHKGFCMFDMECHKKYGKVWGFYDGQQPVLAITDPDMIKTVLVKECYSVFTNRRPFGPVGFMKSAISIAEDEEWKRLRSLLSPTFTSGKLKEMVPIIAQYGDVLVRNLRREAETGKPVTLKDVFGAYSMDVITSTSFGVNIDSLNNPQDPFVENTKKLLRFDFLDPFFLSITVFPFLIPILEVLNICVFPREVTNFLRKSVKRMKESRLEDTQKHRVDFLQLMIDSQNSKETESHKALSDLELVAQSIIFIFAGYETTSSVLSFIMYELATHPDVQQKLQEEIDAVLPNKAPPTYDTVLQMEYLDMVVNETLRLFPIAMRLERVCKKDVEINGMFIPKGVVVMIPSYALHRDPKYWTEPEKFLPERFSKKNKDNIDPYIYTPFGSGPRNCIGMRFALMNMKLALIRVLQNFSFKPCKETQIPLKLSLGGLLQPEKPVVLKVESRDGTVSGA
Chain of macitentan metabolism (formation of ACT-132577) (Homo sapiens, UniProt P08684) (P08684 2-503): as above

- Difference in pharmacokinetic parameters, experimental vs control group ([1]; with BP 10 mg/kg vs without, p > 0.05): no significant differences
- Stability RE (%) ([2]; 4°C, 24 h, 30 ng/mL): 106.81%
- Stability RE (%) ([2]; 4°C, 24 h, 900 ng/mL): 104.77%
- Stability RE (%) ([2]; 4°C, 24 h, 9000 ng/mL): 105.28%
- Stability RE (%) ([2]; Room temperature, 6 h, 30 ng/mL): 109.84%
- Stability RE (%) ([2]; Room temperature, 6 h, 900 ng/mL): 106.18%
- Stability RE (%) ([2]; Room temperature, 6 h, 9000 ng/mL): 107.44%
- Stability RE (%) ([2]; −80°C, 7days, 30 ng/mL): 105.76%
- Stability RE (%) ([2]; −80°C, 7days, 900 ng/mL): 107.26%
- Stability RE (%) ([2]; −80°C, 7days, 9000 ng/mL): 103.40%
Compound: NS(=O)(=O)Nc1ncnc(OCCOc2ncc(Br)cn2)c1-c1ccc(Br)cc1 [ACT-132577]
- Pharmacological activity of metabolite (ET receptor): Active
- Potency relative to macitentan (less potent) (ET receptor; antagonism of the ET receptor): approximately five-fold
- Change in exposure in the presence of rifampin ([3]; ref Bruderer et al, 2012b): no significant change
- Concentrations when macitentan coadministered with St. John’s Wort ([3]; ref Huppertz et al, 2018): unaltered
- Exposure decrease in the presence of ketoconazole [3, 13]: 26%

- Km at 30 min [4]: 4.82 µM
- Cmax ([1]; control group): 1340 ng/mL
- Tmax ([1]; control group): 1.92 ± 0.8 h
- AUC(0-inf) [1, 14]: 7900 ng·h/mL
- AUC(0-t) [1, 14]: 7870 ng·h/mL
- CL/F ([1]; control group): 43.3 mL/min/kg
- MRT last ([1]; control group): 5.48 ± 0.96 h
- MRT inf ([1]; control group): 5.6 ± 1.08 h
- half-life ([1]; control group): 4.53 ± 0.9 h
- AUC(0-inf) [1, 15]: 20400 ng·h/mL
- AUC(0-t) [1, 15]: 20300 ng·h/mL
- Cmax [1, 15]: 3000 ng/mL
- Tmax [1, 15]: 2.5 ± 0.55 h
- CL/F [1, 15]: 17.8 mL/min/kg
- MRT last [1, 15]: 5.91 ± 0.74 h
- MRT inf [1, 15]: 6.12 ± 0.8 h
- half-life [1, 15]: 5.07 ± 1.15 h
- CLz/F decreased by, experimental vs control group ([1]; with BP 10 mg/kg vs without): 0.59 fold
- AUC(0-t) enhanced by, experimental vs control group [1, 16]: 1.57 fold
- AUC(0-∞) enhanced by, experimental vs control group [1, 16]: 1.58 fold
- Cmax enhanced by, experimental vs control group [1, 16]: 1.24 fold
- Stability RE (%) ([2]; 4°C, 24 h, 4 ng/mL): 107.57%
- Stability RE (%) ([2]; 4°C, 24 h, 160 ng/mL): 104.86%
- Stability RE (%) ([2]; 4°C, 24 h, 1,600 ng/mL): 106.50%
- Stability RE (%) ([2]; Room temperature, 6 h, 4 ng/mL): 113.51%
- Stability RE (%) ([2]; Room temperature, 6 h, 160 ng/mL): 109.43%
- Stability RE (%) ([2]; Room temperature, 6 h, 1,600 ng/mL): 105.63%
- Stability RE (%) ([2]; −80°C, 7days, 4 ng/mL): 104.39%
- Stability RE (%) ([2]; −80°C, 7days, 160 ng/mL): 103.80%
- Stability RE (%) ([2]; −80°C, 7days, 1,600 ng/mL): 105.44%
Compound: CCCNS(=O)(=O)Nc1ncnc(OCCOc2ncc(Br)cn2)c1-c1ccc(Br)cc1 [macitentan]
- Vmax of macitentan metabolism [5]: 0.50 nmol/min/mg protein
- oral bioavailability [6]: 74%
- Exposure reduction in the presence of rifampin ([3]; ref Bruderer et al, 2012b): four-fold
- Exposure reduced to, coadministered with St. John’s Wort ([3]; ref Huppertz et al, 2018): approximately half
- Exposure increase in the presence of ketoconazole [3, 13]: approximately two-fold

Compound: CCCNS(=O)(=O)Nc1ncnc(OCC(=O)O)c1-c1ccc(Br)cc1 [ACT-373898]
- Pharmacological activity of metabolite (ET receptor): Inactive

Compound: COc1c2ccoc2cc2oc(=O)ccc12 [BP, 5-methoxypsoralen]
- Inhibition mechanism (Lineweaver-Burk) [5]: competitive inhibition
- Ki ([5]; competitive inhibition, read-out: Ki of BP on macitentan metabolism): 1.39 µM
- IC50 at 30 min [7]: 3.84 µM
- Inhibition mechanism (Lineweaver-Burk) ([8]; HLMs): competitive inhibition
- Ki ([8]; human, microsomes): 0.12 µM
- IC50 at 30 min [9]: 17.8 µM
- Inhibition mechanism (Lineweaver-Burk) ([10]; rCYP3A4): competitive inhibition
- IC50 ([10]; rCYP3A4 0.13 mg/mL, 30 min, 37°C, read-out: IC50 of BP on macitentan metabolism): 12.8 µM
- Ki ([10]; read-out: Ki of BP on macitentan metabolism): 5.06 µM
- Cmax [11]: ~2100 nM
- Cmax [12]: around 447.72 ± 30.61 ng/mL
